This passage reports Kd results from ChEMBL document CHEMBL1150977, “A quantitative analysis of kinase inhibitor selectivity” (Nat Biotechnol, 2008).

Test [1] has as its target Tyrosine-protein kinase ABL1 (Homo sapiens, UniProt P00519, Y253F).
The target of test [2] is cAMP-dependent protein kinase catalytic subunit beta (Homo sapiens, UniProt P22694).
The target in test [3] is T1, Tyrosine-protein kinase receptor TYRO3 (Homo sapiens, UniProt Q06418).
T1 sequence (Q06418 whole entry): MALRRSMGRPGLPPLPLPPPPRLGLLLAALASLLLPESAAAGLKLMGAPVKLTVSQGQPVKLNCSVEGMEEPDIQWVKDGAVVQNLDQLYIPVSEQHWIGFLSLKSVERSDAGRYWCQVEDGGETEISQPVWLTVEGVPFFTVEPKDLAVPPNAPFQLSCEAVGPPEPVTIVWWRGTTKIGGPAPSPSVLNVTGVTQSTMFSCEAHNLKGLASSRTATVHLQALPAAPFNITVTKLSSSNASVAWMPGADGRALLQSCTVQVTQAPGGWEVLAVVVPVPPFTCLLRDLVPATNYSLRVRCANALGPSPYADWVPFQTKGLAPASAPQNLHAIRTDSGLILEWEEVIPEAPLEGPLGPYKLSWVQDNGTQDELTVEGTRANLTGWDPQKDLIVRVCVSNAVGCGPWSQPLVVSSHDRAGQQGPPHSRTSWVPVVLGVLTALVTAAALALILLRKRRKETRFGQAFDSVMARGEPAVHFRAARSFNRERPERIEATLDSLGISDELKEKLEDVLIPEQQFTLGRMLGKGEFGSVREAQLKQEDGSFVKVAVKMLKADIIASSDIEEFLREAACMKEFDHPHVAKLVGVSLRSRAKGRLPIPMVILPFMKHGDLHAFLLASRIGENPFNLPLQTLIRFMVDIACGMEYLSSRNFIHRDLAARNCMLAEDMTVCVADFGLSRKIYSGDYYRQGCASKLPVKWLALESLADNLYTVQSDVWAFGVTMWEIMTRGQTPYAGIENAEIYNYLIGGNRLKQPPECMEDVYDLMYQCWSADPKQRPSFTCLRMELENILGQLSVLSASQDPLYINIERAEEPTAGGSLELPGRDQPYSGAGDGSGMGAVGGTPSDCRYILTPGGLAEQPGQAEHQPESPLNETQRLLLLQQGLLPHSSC

For test [4], the target named is Tyrosine-protein kinase Lck (Homo sapiens, UniProt P06239).
Tyrosine-protein kinase Lck, sequence (P06239 whole entry): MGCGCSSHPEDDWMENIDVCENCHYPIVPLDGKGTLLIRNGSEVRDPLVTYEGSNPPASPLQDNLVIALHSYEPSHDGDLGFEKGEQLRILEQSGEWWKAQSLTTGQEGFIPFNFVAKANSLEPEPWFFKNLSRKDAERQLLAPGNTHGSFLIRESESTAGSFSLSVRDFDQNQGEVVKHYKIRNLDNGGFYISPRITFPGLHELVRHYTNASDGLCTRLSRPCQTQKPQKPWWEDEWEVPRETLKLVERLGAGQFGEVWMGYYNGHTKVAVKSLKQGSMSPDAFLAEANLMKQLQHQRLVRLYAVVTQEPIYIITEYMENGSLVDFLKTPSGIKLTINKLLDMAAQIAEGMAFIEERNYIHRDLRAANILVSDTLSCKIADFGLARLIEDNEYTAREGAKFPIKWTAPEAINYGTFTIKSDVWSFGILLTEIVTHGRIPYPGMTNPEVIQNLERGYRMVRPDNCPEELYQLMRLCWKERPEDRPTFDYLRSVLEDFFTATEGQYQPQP
Another test concerns the target Activin receptor type-2B (Homo sapiens, UniProt Q13705).
The target of test [5] is T2, Serine/threonine-protein kinase 17B (Homo sapiens, UniProt O94768).
T2 sequence (O94768 whole entry): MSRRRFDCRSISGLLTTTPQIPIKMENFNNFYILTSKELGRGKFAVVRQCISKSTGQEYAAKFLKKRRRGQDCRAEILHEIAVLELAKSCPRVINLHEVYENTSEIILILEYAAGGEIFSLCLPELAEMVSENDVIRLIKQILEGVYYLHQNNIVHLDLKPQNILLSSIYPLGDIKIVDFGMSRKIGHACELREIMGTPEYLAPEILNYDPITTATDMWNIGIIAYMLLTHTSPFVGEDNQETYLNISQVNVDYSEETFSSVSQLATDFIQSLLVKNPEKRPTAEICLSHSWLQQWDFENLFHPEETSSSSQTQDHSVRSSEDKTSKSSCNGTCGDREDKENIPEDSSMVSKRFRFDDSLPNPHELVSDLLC

Test [6] deals with Mast/stem cell growth factor receptor Kit (Homo sapiens, UniProt P10721).
Mast/stem cell growth factor receptor Kit, sequence (P10721 whole entry): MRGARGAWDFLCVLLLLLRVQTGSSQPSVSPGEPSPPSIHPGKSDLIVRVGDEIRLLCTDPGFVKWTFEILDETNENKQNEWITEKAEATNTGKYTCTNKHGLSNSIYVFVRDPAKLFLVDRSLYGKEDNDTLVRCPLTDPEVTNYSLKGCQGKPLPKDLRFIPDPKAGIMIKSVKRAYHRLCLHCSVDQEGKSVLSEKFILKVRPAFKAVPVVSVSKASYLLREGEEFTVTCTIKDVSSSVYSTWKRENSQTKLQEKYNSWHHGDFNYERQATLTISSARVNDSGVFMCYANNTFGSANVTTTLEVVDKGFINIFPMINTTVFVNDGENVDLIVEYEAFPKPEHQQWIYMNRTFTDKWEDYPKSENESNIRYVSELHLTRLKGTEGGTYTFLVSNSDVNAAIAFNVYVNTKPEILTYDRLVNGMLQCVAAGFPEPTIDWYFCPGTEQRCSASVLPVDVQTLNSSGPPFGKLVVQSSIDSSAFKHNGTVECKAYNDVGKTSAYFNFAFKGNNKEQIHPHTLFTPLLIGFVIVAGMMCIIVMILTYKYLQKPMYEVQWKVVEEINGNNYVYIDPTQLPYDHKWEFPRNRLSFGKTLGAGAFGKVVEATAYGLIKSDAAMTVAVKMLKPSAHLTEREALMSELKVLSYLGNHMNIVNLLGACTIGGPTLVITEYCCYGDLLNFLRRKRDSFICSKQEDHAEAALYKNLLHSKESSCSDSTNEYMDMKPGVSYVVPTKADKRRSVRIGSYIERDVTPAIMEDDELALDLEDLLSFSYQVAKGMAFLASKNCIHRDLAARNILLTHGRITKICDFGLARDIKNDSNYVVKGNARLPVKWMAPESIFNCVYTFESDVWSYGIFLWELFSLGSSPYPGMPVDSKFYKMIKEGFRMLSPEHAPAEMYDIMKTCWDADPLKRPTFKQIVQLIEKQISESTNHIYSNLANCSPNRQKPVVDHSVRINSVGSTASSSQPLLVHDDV
The next test has as its target Myosin-IIIa (Homo sapiens, UniProt Q8NEV4).
For test [7], the target named is T3, Receptor-type tyrosine-protein kinase FLT3 (Homo sapiens, UniProt P36888).
T3 sequence (P36888 whole entry): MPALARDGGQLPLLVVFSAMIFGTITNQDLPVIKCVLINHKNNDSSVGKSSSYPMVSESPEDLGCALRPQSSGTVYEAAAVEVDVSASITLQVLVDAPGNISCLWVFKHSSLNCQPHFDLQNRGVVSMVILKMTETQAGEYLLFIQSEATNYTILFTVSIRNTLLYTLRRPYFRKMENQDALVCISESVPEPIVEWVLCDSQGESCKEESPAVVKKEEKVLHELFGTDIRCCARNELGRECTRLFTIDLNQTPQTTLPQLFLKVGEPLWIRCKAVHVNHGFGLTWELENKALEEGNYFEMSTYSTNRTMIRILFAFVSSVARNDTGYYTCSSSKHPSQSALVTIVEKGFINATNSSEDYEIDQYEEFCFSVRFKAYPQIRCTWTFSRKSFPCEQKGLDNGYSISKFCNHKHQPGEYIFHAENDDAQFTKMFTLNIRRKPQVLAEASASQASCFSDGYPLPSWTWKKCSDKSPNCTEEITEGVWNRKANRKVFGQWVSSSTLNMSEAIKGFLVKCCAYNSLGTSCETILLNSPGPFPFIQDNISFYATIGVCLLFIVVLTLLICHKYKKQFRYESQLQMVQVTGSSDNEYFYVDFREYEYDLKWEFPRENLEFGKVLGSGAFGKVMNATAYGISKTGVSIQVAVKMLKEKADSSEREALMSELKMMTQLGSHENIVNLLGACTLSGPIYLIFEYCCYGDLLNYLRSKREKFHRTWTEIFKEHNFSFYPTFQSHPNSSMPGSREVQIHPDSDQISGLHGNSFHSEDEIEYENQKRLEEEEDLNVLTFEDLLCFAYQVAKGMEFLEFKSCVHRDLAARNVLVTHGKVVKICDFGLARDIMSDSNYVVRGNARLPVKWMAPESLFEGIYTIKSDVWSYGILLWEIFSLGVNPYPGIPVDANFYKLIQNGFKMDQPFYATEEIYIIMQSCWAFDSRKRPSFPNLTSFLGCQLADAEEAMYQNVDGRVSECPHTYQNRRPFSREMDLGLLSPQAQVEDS

Myosin-IIIa, sequence (Q8NEV4 whole entry): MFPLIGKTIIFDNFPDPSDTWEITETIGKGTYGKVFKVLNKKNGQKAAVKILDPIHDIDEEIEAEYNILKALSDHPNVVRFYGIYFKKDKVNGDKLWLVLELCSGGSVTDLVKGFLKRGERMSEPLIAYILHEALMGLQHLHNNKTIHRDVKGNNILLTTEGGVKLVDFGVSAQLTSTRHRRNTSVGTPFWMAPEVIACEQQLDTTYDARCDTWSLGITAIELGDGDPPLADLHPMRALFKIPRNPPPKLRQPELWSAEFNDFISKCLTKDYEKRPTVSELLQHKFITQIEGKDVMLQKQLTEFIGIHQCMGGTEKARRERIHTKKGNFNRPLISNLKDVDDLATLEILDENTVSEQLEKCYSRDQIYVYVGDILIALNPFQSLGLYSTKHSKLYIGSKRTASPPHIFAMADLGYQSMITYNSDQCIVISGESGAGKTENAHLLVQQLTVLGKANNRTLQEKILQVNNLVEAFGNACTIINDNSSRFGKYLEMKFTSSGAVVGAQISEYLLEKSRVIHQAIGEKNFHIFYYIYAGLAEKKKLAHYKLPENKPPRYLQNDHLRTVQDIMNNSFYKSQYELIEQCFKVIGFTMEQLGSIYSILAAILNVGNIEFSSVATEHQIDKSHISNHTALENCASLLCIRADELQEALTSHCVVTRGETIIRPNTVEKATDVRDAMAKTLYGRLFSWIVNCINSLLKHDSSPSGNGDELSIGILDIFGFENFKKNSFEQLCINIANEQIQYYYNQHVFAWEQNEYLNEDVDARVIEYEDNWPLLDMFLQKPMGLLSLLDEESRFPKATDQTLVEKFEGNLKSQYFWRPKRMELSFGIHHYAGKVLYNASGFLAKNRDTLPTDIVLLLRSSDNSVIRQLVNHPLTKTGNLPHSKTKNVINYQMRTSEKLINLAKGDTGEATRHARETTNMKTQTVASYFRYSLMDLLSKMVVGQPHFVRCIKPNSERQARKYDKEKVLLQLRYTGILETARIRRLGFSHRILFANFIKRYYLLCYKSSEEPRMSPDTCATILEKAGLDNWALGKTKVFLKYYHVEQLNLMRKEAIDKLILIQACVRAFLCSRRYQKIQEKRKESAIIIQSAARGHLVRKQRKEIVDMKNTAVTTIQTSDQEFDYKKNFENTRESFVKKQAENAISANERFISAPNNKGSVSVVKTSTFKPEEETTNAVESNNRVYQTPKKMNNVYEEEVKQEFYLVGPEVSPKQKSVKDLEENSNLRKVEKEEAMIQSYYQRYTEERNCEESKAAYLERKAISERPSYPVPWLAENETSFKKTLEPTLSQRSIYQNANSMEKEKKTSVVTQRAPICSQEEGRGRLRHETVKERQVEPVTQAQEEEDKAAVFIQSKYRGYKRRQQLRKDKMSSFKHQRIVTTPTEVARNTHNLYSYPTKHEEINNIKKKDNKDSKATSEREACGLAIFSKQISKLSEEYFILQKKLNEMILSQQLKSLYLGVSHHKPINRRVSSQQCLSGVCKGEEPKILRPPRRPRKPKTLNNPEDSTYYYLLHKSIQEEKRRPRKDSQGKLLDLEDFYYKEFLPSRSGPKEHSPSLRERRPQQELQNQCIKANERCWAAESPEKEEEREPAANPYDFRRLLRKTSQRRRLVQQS
Activin receptor type-2B, sequence (Q13705 whole entry): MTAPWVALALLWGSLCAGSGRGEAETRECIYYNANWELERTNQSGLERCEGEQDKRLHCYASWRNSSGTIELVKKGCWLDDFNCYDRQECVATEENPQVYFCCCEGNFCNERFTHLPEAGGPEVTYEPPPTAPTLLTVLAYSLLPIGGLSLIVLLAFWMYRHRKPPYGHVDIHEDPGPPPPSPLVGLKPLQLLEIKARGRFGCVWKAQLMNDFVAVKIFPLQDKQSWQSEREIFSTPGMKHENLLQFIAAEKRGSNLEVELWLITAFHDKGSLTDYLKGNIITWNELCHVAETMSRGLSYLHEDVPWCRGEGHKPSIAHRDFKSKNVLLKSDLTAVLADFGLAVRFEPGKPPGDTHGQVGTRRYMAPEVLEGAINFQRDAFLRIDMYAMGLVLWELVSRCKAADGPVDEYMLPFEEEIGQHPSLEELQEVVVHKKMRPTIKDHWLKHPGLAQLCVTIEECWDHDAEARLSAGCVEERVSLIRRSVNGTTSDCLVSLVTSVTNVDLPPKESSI

With `COCC(=O)NC/C=C/c1ccc2ncnc(Nc3ccc(Oc4ccc(C)nc4)c(C)c3)c2c1` [CP-724714], the Kd (in test [1]; in test [2]; in test [3]; in test [4]; on Activin receptor type-2B; in test [5]) was more than 10 µM in each case. For the same compound, the Kd (in [6]; on Myosin-IIIa; in [7]) was more than 10 µM throughout.
Take `Nc1nc(Nc2ccc(S(N)(=O)=O)cc2)nn1C(=O)c1c(F)cccc1F` [JNJ-7706621]: the Kd is more than 10 µM in [2]; more than 10 µM in test [3]; 5.9 µM at Activin receptor type-2B; more than 10 µM in test [5]; more than 10 µM on Myosin-IIIa.
For `CCOc1cc2ncc(C#N)c(Nc3ccc(F)c(Cl)c3)c2cc1NC(=O)/C=C/CN(C)C` [PELITINIB], the dissociation constant Kd (in test [2]; on Activin receptor type-2B; in [6]; at Myosin-IIIa; in [7]) was more than 10 µM throughout.
Regarding `Oc1ccc(-c2nc(-c3ccncc3)c(-c3ccc(F)cc3)[nH]2)cc1` [SB-202190], the Kd in test [1] was more than 10 µM; in [2] it was 0.53 µM; in [3], more than 10 µM; in test [4] it was more than 10 µM; at Activin receptor type-2B it was 4.8 µM; in [5], more than 10 µM. Besides, the Kd (in [6]; at Myosin-IIIa; in test [7]) was more than 10 µM each time.
Take `NC(=O)c1ccc(-c2nc(-c3ccc4c(c3)OCO4)c(-c3ccccn3)[nH]2)cc1` [SB-431542]: the Kd (in [1]; in test [2]; in [3]; in [4]; at Activin receptor type-2B; in test [5]) was more than 10 µM throughout. In addition, the Kd (in test [6]; on Myosin-IIIa) was more than 10 µM each time.
